Source: paper PMC12064818, “A general assay platform to study protein pharmacology using ligand-dependent structural dynamics” (Nature Communications, 2025)
Like-named read-outs stand apart in the source and are kept apart here.

Tests used:
FLuc-C-HiBiT = target: T1, FLuc-C-HiBiT (Photinus pyralis, UniProt P08659); assay: biochemical; conditions: enzyme activity, 10 uM ATP; read-out: IC50 or SDR50 (mM) / FLuc E
T1 construct: firefly luciferase with C-terminal HiBiT tag, E. coli expressed

[1] = target: FLuc-C-NLuc (firefly luciferase) (Photinus pyralis, UniProt P08659, form not given/L550V); assay: SDR assay, FLuc-C-NLuc; conditions: - ATP
P. pyralis FLuc = P. pyralis FLuc (Photinus pyralis, UniProt P08659); assay: FLuc enzymatic luminescence assay, P. pyralis FLuc; format: biochemical; conditions: FLuc enzymatic assay; for IC50: read-out: IC50 or SDR50 (mM) FLuc E
Outline: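 Runs with and without 10 µM ATP: compounds were pre-incubated with FLuc (1–10 nM, PBS pH 7.4) at ambient temperature, light-protected, for 30–60 min. Luminescence was imaged 5 min after adding 10 µM D-luciferin (final). Inhibition was scaled between DMSO neutral and no-enzyme controls.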

NLuc = target: T2, NLuc (Oplophorus gracilirostris, UniProt Q9GV45, A31E/A60N/A81I/F95D/I117V/K70R/L54V/L99Q/M102K/N193R/P142E/Q151K/Q38R/Q45L/V71I/Y165I); format: biochemical; conditions: - ATP
T2 construct: His tag (inferred from IMAC purification); made in house; host or cells: E. coli
Outline: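 Test compounds added to 1 nM NLuc in PBS with 0.05% IGEPAL, ± ATP. Nano-Glo reagent added and incubated 10 min before luminescence read.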

[2] = target: FLuc-C-HiBiT (firefly luciferase) (Photinus pyralis, UniProt P08659, form not given/L550V); assay: SDR assay, FLuc-C-HiBiT; conditions: for % Activity (max response, + ATP) / % Activity (max response, - ATP): SDR max. response, clade S
Sequence of FLuc-C-HiBiT (firefly luciferase) (P08659 2-550 L550V, form open): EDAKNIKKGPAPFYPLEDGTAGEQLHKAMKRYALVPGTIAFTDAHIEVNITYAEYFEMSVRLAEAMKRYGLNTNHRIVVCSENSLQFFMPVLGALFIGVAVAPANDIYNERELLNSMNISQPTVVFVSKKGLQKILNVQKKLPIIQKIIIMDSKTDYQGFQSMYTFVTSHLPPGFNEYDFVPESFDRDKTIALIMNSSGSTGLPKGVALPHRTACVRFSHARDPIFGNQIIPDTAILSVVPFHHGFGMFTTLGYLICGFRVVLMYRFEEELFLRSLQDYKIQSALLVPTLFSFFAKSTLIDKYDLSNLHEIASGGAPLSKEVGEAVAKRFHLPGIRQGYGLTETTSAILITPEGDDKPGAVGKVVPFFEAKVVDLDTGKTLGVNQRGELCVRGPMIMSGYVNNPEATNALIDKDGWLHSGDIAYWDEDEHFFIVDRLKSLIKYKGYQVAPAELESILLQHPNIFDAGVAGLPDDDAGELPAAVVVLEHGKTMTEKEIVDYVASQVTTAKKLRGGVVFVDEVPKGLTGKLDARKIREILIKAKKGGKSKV

Sequence of P. pyralis FLuc (P08659 whole entry): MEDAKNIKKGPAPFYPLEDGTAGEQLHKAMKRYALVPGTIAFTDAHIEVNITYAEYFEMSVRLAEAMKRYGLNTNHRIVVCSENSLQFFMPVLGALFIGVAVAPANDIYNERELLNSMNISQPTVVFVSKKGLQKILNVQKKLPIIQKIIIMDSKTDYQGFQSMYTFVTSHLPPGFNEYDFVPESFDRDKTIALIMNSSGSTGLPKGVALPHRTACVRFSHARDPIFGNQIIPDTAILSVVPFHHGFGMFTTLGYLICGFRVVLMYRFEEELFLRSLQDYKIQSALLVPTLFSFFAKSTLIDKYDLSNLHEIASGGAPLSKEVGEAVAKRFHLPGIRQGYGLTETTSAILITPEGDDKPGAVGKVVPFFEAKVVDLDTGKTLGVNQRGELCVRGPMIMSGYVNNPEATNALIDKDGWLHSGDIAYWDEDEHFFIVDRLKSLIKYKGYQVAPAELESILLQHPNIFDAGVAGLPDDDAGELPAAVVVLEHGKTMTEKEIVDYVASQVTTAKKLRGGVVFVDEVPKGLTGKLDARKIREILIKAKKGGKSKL
T1 sequence (P08659 whole entry, looked up): as the sequence (P08659 whole entry) above
Sequence of FLuc-C-NLuc (firefly luciferase) (P08659 2-550 L550V, form open): as the sequence (P08659 2-550 L550V, form open) above
T2 sequence (Q9GV45 other isoform, or with tags, fused parts or gaps with the stated changes): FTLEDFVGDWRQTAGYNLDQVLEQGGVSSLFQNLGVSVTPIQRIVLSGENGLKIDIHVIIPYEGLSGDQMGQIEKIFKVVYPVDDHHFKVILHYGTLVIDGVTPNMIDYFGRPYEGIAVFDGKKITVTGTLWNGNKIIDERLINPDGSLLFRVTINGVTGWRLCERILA

Row | SMILES | IC50 (FLuc-C-HiBiT) [mM] | Efficacy (%) FLuc-C-NLuc SDR (-ATP) [1] [%] | pIC50 or pSDR50 FLuc E (P. pyralis FLuc) | Efficacy (%) FLuc E (P. pyralis FLuc; Clade S follow-up) [%] | IC50 (P. pyralis FLuc) [mM] | Efficacy (%) NLuc (- ATP) (NLuc) [%] | % Activity (max response, + ATP) [2] [%] | % Activity (max response, - ATP) ([2]; - ATP) [%] | pIC50 or pSDR50 FLuc E (P. pyralis FLuc; Clade S follow-up) | IC50 (P. pyralis FLuc; Clade S follow-up) [mM] | pSDR50 (clade S) ([2]; - ATP, dihydro-imidazo-oxazine (clade S))
1 | O=C(NCC1CC1)C1CCN(C(=O)c2ncn3c2COC(c2ccccc2)C3)CC1 (stereo not drawn) [NCGC00449799-01] | 0.007 | 0.00 | 5.11 | -97.90 | 0.00784 | 0.00 | 355.70 | 0.00 | – | – | –
2 | O=C(NCc1ccncc1)C1CCN(C(=O)c2ncn3c2COC(c2ccc(F)cc2)C3)CC1 (stereo not drawn) [NCGC00449833-01] | 0.0111 | 0.00 | – | -87.47 | – | -20.01 | 157.03 | 0.00 | 5.21 | 0.00623 | –
3 | CCOc1ccccc1CNC(=O)C1CCN(C(=O)c2ncn3c2COC(c2ccccc2)C3)CC1 (stereo not drawn) [NCGC00449779-01] | 0.00313 | 0.00 | 5.21 | -109.28 | 0.00623 | 0.00 | 223.68 | 0.00 | – | – | –
4 | O=C(NCc1ccc(F)cc1Cl)C1CCN(C(=O)c2ncn3c2COC(c2ccccc2)C3)CC1 (stereo not drawn) [NCGC00449789-01] | 0.00881 | 0.00 | 5.01 | -100.38 | 0.00988 | 0.00 | 205.97 | 0.00 | – | – | –
5 | O=C(Nc1ccccc1)C1CCN(C(=O)c2ncn3c2COC(c2ccccc2)C3)CC1 (stereo not drawn) [NCGC00449901-01] | 0.00157 | 0.00 | – | -101.51 | – | 0.00 | 354.42 | 0.00 | 5.86 | 0.0014 | –
6 | O=C(Nc1ccc(F)c(Cl)c1)C1CCN(C(=O)c2ncn3c2COC(c2ccccc2)C3)CC1 (stereo not drawn) [NCGC00449918-01] | 0.000989 | 0.00 | – | -99.81 | – | 0.00 | 238.83 | 49.33 | 6.16 | 0.0007 | 4.95
7 | O=C(NCc1ccc2c(c1)OCO2)C1CCN(C(=O)c2ncn3c2COC(c2ccccc2)C3)CC1 (stereo not drawn) [NCGC00449781-01] | 0.007 | 0.00 | 5.51 | -80.20 | 0.00312 | 0.00 | 220.59 | 0.00 | – | – | –
8 | COc1ccccc1CNC(=O)C1CCN(C(=O)c2ncn3c2COC(c2ccccc2)C3)CC1 (stereo not drawn) [NCGC00449776-01] | 0.00624 | 0.00 | 5.66 | -78.77 | 0.00221 | 0.00 | 209.84 | 0.00 | – | – | –
9 | Cc1cc(C)cc(NC(=O)C2CCN(C(=O)c3ncn4c3COC(c3ccccc3)C4)CC2)c1 (stereo not drawn) [NCGC00449905-01] | 0.00313 | 0.00 | – | -86.91 | – | 0.00 | 375.38 | 0.00 | 5.46 | 0.0035 | –
10 | O=C(NCCc1ccccc1)C1CCN(C(=O)c2ncn3c2COC(c2ccccc2)C3)CC1 (stereo not drawn) [NCGC00449794-01] | 0.00248 | 0.00 | 5.66 | -92.17 | 0.00221 | 0.00 | 379.45 | 0.00 | – | – | –
